In patent US20060069132A1, “Azolecarboxamide herbicides” (priority 2004, published 2006):

Assays:
wild oat = assay: Test B postemergence herbicide test; type: in vivo, Avena fatua; details: postemergence
Outline: (§1)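 Plants grow to 1- to 4-leaf stage (2–18 cm) for postemergence spraying, or to 2-leaf stage for the paddy test. Formulated compound is applied. Greenhouse holding lasts 13–15 days. Response is scored visually relative to controls, 0 no effect to 100 complete control; a dash means no result.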

lambsquarters = assay: Test B pre-/postemergence herbicide test; type: in vivo, Chenopodium album; details: for Lambsquarters plant response rating (0 to 100 scale) / Plant response rating, Lambsquarters: 0 = no effect, 100 = complete control, preemergence; for Lambsquarters plant response rating: postemergence
Outline: (§2)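 Flooded paddy rice and barnyardgrass were treated at the 2-leaf stage; upland plantings received compound either on sown seed or on 1- to 4-leaf seedlings. All were kept 13–15 days in a greenhouse and scored visually, 0–100, relative to untreated plants.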

pigweed = assay: Test B pre-/postemergence herbicide test; type: in vivo, Amaranthus retroflexus; details: for Pigweed plant response rating (0 to 100 scale) / Plant response rating, Pigweed: 0 = no effect, 100 = complete control, preemergence; for Pigweed plant response rating: postemergence
Outline: as §2

corn = assay: Test B pre-/postemergence herbicide test; type: in vivo, Zea mays; details: for Corn plant response rating (0 to 100 scale) / Plant response rating, Corn: 0 = no effect, 100 = complete control, preemergence; for Corn plant response rating: postemergence
Outline: as §2

velvetleaf = assay: Test B pre-/postemergence herbicide test; type: in vivo, Abutilon theophrasti; details: for Velvetleaf plant response rating: postemergence; for Plant response rating, Velvetleaf: 0 = no effect, 100 = complete control, preemergence
Outline: as §2

blackgrass = assay: Test B postemergence herbicide test; type: in vivo, Alopecurus myosuroides; details: postemergence
Outline: (§3)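 Visual ratings, 0 (no effect) to 100 (complete control), made versus controls after 13–15 d greenhouse. Paddy plants treated at 2-leaf stage; postemergence plants at 1- to 4-leaf stage, 2–18 cm tall.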

large crabgrass = assay: Test B pre-/postemergence herbicide test; type: in vivo, Digitaria sanguinalis; details: for Crabgrass, Large plant response rating (0 to 100 scale) / Plant response rating, Crabgrass, Large: 0 = no effect, 100 = complete control, preemergence; for Crabgrass, Large plant response rating: postemergence
Outline: as §2

barnyardgrass = assay: Test B pre-/postemergence herbicide test; type: in vivo, Echinochloa crus-galli; details: for Barnyardgrass plant response rating (0 to 100 scale) / Plant response rating, Barnyardgrass: 0 = no effect, 100 = complete control, preemergence; for Barnyardgrass plant response rating: postemergence
Outline: (§4)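 Visual rating, 0 (no effect) to 100 (complete control), versus untreated controls after 13–15 d in greenhouse. Pre- and postemergence applications (postemergence plants 2–18 cm, 1–4 leaves); flooded paddy arm at 2-leaf stage. Compounds in non-phytotoxic solvent plus surfactant.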

Surinam grass = assay: Test B pre-/postemergence herbicide test; type: in vivo, Urochloa decumbens; details: for Surinam Grass plant response rating (0 to 100 scale) / Plant response rating, Surinam Grass: 0 = no effect, 100 = complete control, preemergence; for Surinam Grass plant response rating: postemergence
Outline: as §2

giant foxtail = assay: Test B pre-/postemergence herbicide test; type: in vivo, Setaria faberi; details: for Foxtail, Giant plant response rating (0 to 100 scale) / Plant response rating, Foxtail, Giant: 0 = no effect, 100 = complete control, preemergence; for Foxtail, Giant plant response rating: postemergence
Outline: as §2

wheat = assay: Test B postemergence herbicide test; type: in vivo, Triticum aestivum; design: key to Wheat plant response rating: 0 = no effect, 100 = complete control; details: postemergence
Outline: as §1

morningglory = assay: Test B pre-/postemergence herbicide test; type: in vivo, Ipomoea coccinea; details: for Morningglory plant response rating (0 to 100 scale) / Plant response rating, Morningglory: 0 = no effect, 100 = complete control, preemergence; for Morningglory plant response rating: postemergence
Outline: as §4

cocklebur = assay: Test B pre-/postemergence herbicide test; type: in vivo, Xanthium strumarium; details: for Cocklebur plant response rating (0 to 100 scale) / Plant response rating, Cocklebur: 0 = no effect, 100 = complete control, preemergence; for Cocklebur plant response rating: postemergence
Outline: as §4

[1] = tested on: small flower umbrella sedge; assay: Test B flooded paddy test; type: in vivo, Cyperus difformis; details: 1000 g ai/ha, scale 0 to 100 (0 no effect, 100 complete control)
Outline: as §3

[2] = 125 g ai/ha, visual rating, scale 0 (no effect) to 100 (complete control)
[3] = 500 g ai/ha, scale 0 to 100, 0 is no effect, 100 is complete control

CCn1nc(C(C)(C)C)cc1C(=O)Nc1cncc(C(=O)N2CC=CC2)n1 [Compound 290]
40: Oat, Wild plant response rating (wild oat; [3])
90: Plant response rating, Crabgrass, Large (large crabgrass; 500 g ai/ha, visual rating)
100: Lambsquarters plant response rating (0 to 100 scale) (lambsquarters; 125 g ai/ha) | Plant response rating, Lambsquarters (lambsquarters; 500 g ai/ha, visual rating) | Plant response rating, Pigweed (pigweed; 500 g ai/ha, visual rating)
0: Pigweed plant response rating (0 to 100 scale) (pigweed; 125 g ai/ha) | Corn plant response rating (0 to 100 scale) (corn; 125 g ai/ha) | Corn plant response rating (corn; [2]) | Plant response rating, Corn (corn; 500 g ai/ha, visual rating) | Velvetleaf plant response rating (velvetleaf; [2]) | Plant response rating, Velvetleaf (velvetleaf; 500 g ai/ha, visual rating) | Crabgrass, Large plant response rating (0 to 100 scale) (large crabgrass; 125 g ai/ha) | Crabgrass, Large plant response rating (large crabgrass; [2]) | Crabgrass, Large plant response rating (large crabgrass; [3]) | Barnyardgrass plant response rating (0 to 100 scale) (barnyardgrass; 125 g ai/ha) | Barnyardgrass plant response rating (barnyardgrass; [2]) | Barnyardgrass plant response rating (barnyardgrass; [3]) | Surinam Grass plant response rating (0 to 100 scale) (Surinam grass; 125 g ai/ha) | Surinam Grass plant response rating (Surinam grass; [2]) | Morningglory plant response rating (0 to 100 scale) (morningglory; 125 g ai/ha) | Morningglory plant response rating (morningglory; [2]) | Plant response rating, Morningglory (morningglory; 500 g ai/ha, visual rating) | Morningglory plant response rating (morningglory; [3]) | Cocklebur plant response rating (0 to 100 scale) (cocklebur; 125 g ai/ha) | Cocklebur plant response rating (cocklebur; [2]) | Plant response rating, Cocklebur (cocklebur; 500 g ai/ha, visual rating)
60: Foxtail, Giant plant response rating (giant foxtail; [3])
10: Lambsquarters plant response rating (lambsquarters; [2]) | Pigweed plant response rating (pigweed; [2]) | Pigweed plant response rating (pigweed; [3]) | Corn plant response rating (corn; [3]) | Velvetleaf plant response rating (velvetleaf; [3]) | Plant response rating, Surinam Grass (Surinam grass; 500 g ai/ha, visual rating) | Foxtail, Giant plant response rating (0 to 100 scale) (giant foxtail; 125 g ai/ha) | Cocklebur plant response rating (cocklebur; [3])
80: Plant response rating, Barnyardgrass (barnyardgrass; 500 g ai/ha, visual rating) | Plant response rating, Foxtail, Giant (giant foxtail; 500 g ai/ha, visual rating)
30: Blackgrass plant response rating (blackgrass; [3]) | Surinam Grass plant response rating (Surinam grass; [3]) | Wheat plant response rating (wheat; [3])
70: Sedge, Umbrella plant response rating [1]
20: Oat, Wild plant response rating (wild oat; [2]) | Lambsquarters plant response rating (lambsquarters; [3]) | Blackgrass plant response rating (blackgrass; [2]) | Foxtail, Giant plant response rating (giant foxtail; [2]) | Wheat plant response rating (wheat; [2])

CCOC(=O)c1cccc(NC(=O)c2cc(C3(C)CC3)nn2CC)c1 [Compound 295]
100: Pigweed plant response rating (pigweed; [2]) | Pigweed plant response rating (pigweed; [3]) | Velvetleaf plant response rating (velvetleaf; [3]) | Morningglory plant response rating (morningglory; [3])
0: Lambsquarters plant response rating (0 to 100 scale) (lambsquarters; 125 g ai/ha) | Pigweed plant response rating (0 to 100 scale) (pigweed; 125 g ai/ha) | Corn plant response rating (0 to 100 scale) (corn; 125 g ai/ha) | Surinam Grass plant response rating (0 to 100 scale) (Surinam grass; 125 g ai/ha) | Morningglory plant response rating (0 to 100 scale) (morningglory; 125 g ai/ha) | Cocklebur plant response rating (0 to 100 scale) (cocklebur; 125 g ai/ha) | Plant response rating, Cocklebur (cocklebur; 500 g ai/ha, visual rating)
70: Velvetleaf plant response rating (velvetleaf; [2]) | Plant response rating, Foxtail, Giant (giant foxtail; 500 g ai/ha, visual rating) | Foxtail, Giant plant response rating (giant foxtail; [3])
30: Blackgrass plant response rating (blackgrass; [2]) | Crabgrass, Large plant response rating (large crabgrass; [2]) | Barnyardgrass plant response rating (barnyardgrass; [2]) | Wheat plant response rating (wheat; [3])
40: Oat, Wild plant response rating (wild oat; [2]) | Lambsquarters plant response rating (lambsquarters; [2]) | Blackgrass plant response rating (blackgrass; [3]) | Cocklebur plant response rating (cocklebur; [2])
60: Lambsquarters plant response rating (lambsquarters; [3]) | Plant response rating, Velvetleaf (velvetleaf; 500 g ai/ha, visual rating) | Crabgrass, Large plant response rating (large crabgrass; [3]) | Surinam Grass plant response rating (Surinam grass; [3]) | Foxtail, Giant plant response rating (giant foxtail; [2])
80: Plant response rating, Crabgrass, Large (large crabgrass; 500 g ai/ha, visual rating) | Sedge, Umbrella plant response rating [1]
10: Corn plant response rating (corn; [2]) | Plant response rating, Corn (corn; 500 g ai/ha, visual rating) | Crabgrass, Large plant response rating (0 to 100 scale) (large crabgrass; 125 g ai/ha) | Barnyardgrass plant response rating (0 to 100 scale) (barnyardgrass; 125 g ai/ha) | Foxtail, Giant plant response rating (0 to 100 scale) (giant foxtail; 125 g ai/ha)
20: Corn plant response rating (corn; [3]) | Plant response rating, Barnyardgrass (barnyardgrass; 500 g ai/ha, visual rating) | Plant response rating, Surinam Grass (Surinam grass; 500 g ai/ha, visual rating) | Wheat plant response rating (wheat; [2]) | Plant response rating, Morningglory (morningglory; 500 g ai/ha, visual rating)
50: Oat, Wild plant response rating (wild oat; [3]) | Barnyardgrass plant response rating (barnyardgrass; [3]) | Surinam Grass plant response rating (Surinam grass; [2]) | Morningglory plant response rating (morningglory; [2])
90: Cocklebur plant response rating (cocklebur; [3])

CCn1nc(C(C)(C)C)cc1C(=O)Nc1ccc(OC)c(OC)c1 [Compound 298]
100: Lambsquarters plant response rating (0 to 100 scale) (lambsquarters; 125 g ai/ha) | Plant response rating, Lambsquarters (lambsquarters; 500 g ai/ha, visual rating) | Pigweed plant response rating (0 to 100 scale) (pigweed; 125 g ai/ha) | Plant response rating, Pigweed (pigweed; 500 g ai/ha, visual rating) | Crabgrass, Large plant response rating (0 to 100 scale) (large crabgrass; 125 g ai/ha) | Plant response rating, Crabgrass, Large (large crabgrass; 500 g ai/ha, visual rating) | Plant response rating, Surinam Grass (Surinam grass; 500 g ai/ha, visual rating) | Plant response rating, Foxtail, Giant (giant foxtail; 500 g ai/ha, visual rating)
40: Oat, Wild plant response rating (wild oat; [3]) | Lambsquarters plant response rating (lambsquarters; [2]) | Plant response rating, Morningglory (morningglory; 500 g ai/ha, visual rating)
80: Pigweed plant response rating (pigweed; [2]) | Surinam Grass plant response rating (0 to 100 scale) (Surinam grass; 125 g ai/ha) | Foxtail, Giant plant response rating (0 to 100 scale) (giant foxtail; 125 g ai/ha)
0: Corn plant response rating (corn; [2]) | Cocklebur plant response rating (0 to 100 scale) (cocklebur; 125 g ai/ha) | Plant response rating, Cocklebur (cocklebur; 500 g ai/ha, visual rating)
10: Corn plant response rating (corn; [3]) | Barnyardgrass plant response rating (barnyardgrass; [2]) | Foxtail, Giant plant response rating (giant foxtail; [2]) | Morningglory plant response rating (0 to 100 scale) (morningglory; 125 g ai/ha)
90: Lambsquarters plant response rating (lambsquarters; [3]) | Pigweed plant response rating (pigweed; [3]) | Plant response rating, Barnyardgrass (barnyardgrass; 500 g ai/ha, visual rating)
60: Velvetleaf plant response rating (velvetleaf; [2]) | Plant response rating, Velvetleaf (velvetleaf; 500 g ai/ha, visual rating) | Velvetleaf plant response rating (velvetleaf; [3]) | Morningglory plant response rating (morningglory; [2])
20: Blackgrass plant response rating (blackgrass; [2]) | Crabgrass, Large plant response rating (large crabgrass; [2]) | Surinam Grass plant response rating (Surinam grass; [2]) | Wheat plant response rating (wheat; [2]) | Cocklebur plant response rating (cocklebur; [2])
70: Plant response rating, Corn (corn; 500 g ai/ha, visual rating) | Crabgrass, Large plant response rating (large crabgrass; [3]) | Barnyardgrass plant response rating (0 to 100 scale) (barnyardgrass; 125 g ai/ha) | Morningglory plant response rating (morningglory; [3]) | Sedge, Umbrella plant response rating [1]
50: Blackgrass plant response rating (blackgrass; [3]) | Barnyardgrass plant response rating (barnyardgrass; [3]) | Surinam Grass plant response rating (Surinam grass; [3]) | Foxtail, Giant plant response rating (giant foxtail; [3]) | Cocklebur plant response rating (cocklebur; [3])
30: Oat, Wild plant response rating (wild oat; [2]) | Corn plant response rating (0 to 100 scale) (corn; 125 g ai/ha) | Wheat plant response rating (wheat; [3])
